What was measured:
[1] = tested on: MMP1 expression from activated SFs (RASF); assay: MMP assay: MMP1 expression (ELISA) by TNF-α-triggered RASFs; assay type: cell-based; settings: RASF triggered with TNFα, MMP1 ELISA after 48 hrs, semi-quantitative score
Protocol: A 384-well format ELISA for measurement of MMP1 is developed. Various primary antibodies are tested, as well as various ELISA protocols. The following protocol is developed and validated to measure MMP1 levels in SF supernatant in 384 well plates: white Lumitrac 600 384 well plates (Greiner) are coated with 2 μg/mL anti-MMP1 antibody MAB1346 (Chemicon). The antibody is diluted in buffer 40 (1.21 g Tris base (Sigma), 0.58 g NaCl (Calbiochem) and 5 mL 10% NaN3 (Sigma) in 1 L milliQ water and adjusted to pH 8.5). After overnight incubation at 4° C., plates are washed with PBS (80 g NaCl, 2 g KCl (Sigma), 11.5 g Na2HPO4.7H2O and 2 g KH2PO4 in 10 L milliQ; pH 7.4) and blocked with 100 μL/well Casein buffer (2% Casein (VWR International) in PBS). Next day, casein buffer is removed from ELISA plates and replaced by 50 μL/well EC buffer (4 g casein, 2.13 g Na2HPO4 (Sigma), 2 g bovine albumin (Sigma), 0.69 g NaH2PO4.H2O (Sigma), 0.5 g CHAPS (Roche), 23.3 g NaCl, 4 mL 0.5 M EDTA pH 8 (Invitrogen), 5 mL 10% NaN3 in 1 L milliQ and adjusted to pH 7.0). 0.25 mM DTT (Sigma) is added to the thawed sample plates. After removal of the EC buffer, 20 μL of sample is transferred to the ELISA plates. After overnight incubation at 4° C. plates are washed twice with PBS and once with PBST (PBS with 0.05% Tween-20 (Sigma)) and incubated with 35 μL/well biotinylated anti-MMP1 antibody solution (R&D). This secondary antibody is diluted in buffer C (0.82 g NaH2PO4.H2O, 4.82 g Na2HPO4, 46.6 g NaCl, 20 g bovine albumin and 4 ml, 0.5M EDTA pH 8 in 2 L milliQ and adjusted to pH 7.0) at a concentration of 5 μg/mL. After 2 h of incubation at RT, plates are washed as described above and incubated with 50 μL/well streptavidin-HRP conjugate (Biosource). Streptavidin-HRP conjugate is diluted in buffer C at a concentration of 0.25 μg/mL. After 45 min, plates are washed as described above and incubated for 5 min with 50 μL/well BM Chem ELISA Substrate (Roche). Readout is performed on the Luminoscan Ascent Luminometer (Labsystems) with an integration time of 200 msec or with an Envision reader (Perkin Elmer).
SFs were acquired at passage 1 from a commercial supplier (Cell applications, Inc.). SFs are cultured in DMEM supplemented with 10% heat-inactivated FBS, 1× penicillin/streptomycin (Invitrogen) at 37° C., 10% CO2 until passage 6. Aliquots of the cells are frozen and cryopreserved in liquid nitrogen. Starting from a cryopreserved aliquot, cells are further expanded by sub-culturing cells at 1/3 ratio every week. Cells between passage 10 and 12 are routinely used in compound testing according to the following protocol.
Starting from the compound master stocks (all at 10 mM concentration in 100% DMSO) a 3-fold serial dilution is made in 96-well plates in 100% DMSO. Then, plates are further diluted 45-fold in M199 medium supplemented with 1% heat-inactivated FBS to obtain a intermediate work stock.
At day 1, RASFs are seeded in 96 well plates (flat bottom, tissue culture treated, Greiner) at a density of 3000 cells/well in complete synovial growth medium (Cell Applications). Day 5, the medium is completely removed from the cells, and replaced by 81 μL of M199 medium supplemented with 1% heat-inactivated FBS followed by addition of 10 μL compound out of the intermediate work stock. After an incubation period of 90 minutes, which allows the compounds to equilibrate and enter the cells, cells are stimulated with either TNF-α or ‘complex trigger’. TNF-α trigger is added in a volume of […] to obtain final concentration of 10 ng/mL. For that, TNF-α stock (PeproTech) at 10 μg/mL was diluted to 100 ng/mL TNF-α in M199 medium supplemented with 1% FBS. ‘Complex trigger’ mix is added in a volume of 20 μL to obtain a final concentration of 12.5%. For that, ‘complex trigger’ mix, is diluted to 80% with M199 medium supplemented with 1% FBS. […]

[2] = target: T1, TAK1-TAB1 fusion protein (Homo sapiens, UniProt O43318); assay: In vitro TAK1 kinase assay (33P-ATP, casein substrate); assay type: biochemical; settings: semi-quantitative score, at least two independent experiments
T1 construct: purchased Upstate 14-600
T1 sequence (O43318 with tags, fused parts or gaps limits assumed): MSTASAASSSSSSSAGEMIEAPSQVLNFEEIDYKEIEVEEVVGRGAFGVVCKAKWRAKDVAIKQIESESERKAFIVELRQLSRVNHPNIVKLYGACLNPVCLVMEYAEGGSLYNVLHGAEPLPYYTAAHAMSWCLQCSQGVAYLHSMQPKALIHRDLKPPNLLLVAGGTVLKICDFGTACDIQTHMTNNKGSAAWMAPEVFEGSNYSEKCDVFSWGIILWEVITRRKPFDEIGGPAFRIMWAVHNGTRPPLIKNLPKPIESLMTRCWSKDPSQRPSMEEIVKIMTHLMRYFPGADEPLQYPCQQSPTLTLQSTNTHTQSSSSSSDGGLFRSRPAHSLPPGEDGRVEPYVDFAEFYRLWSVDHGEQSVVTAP
In short: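 Radiometric assay with active TAK1-TAB1 fusion protein (0.5 mU), 0.1 mg/mL casein, ATP at 5 µM plus [33P]-γ-ATP, in 10 mM MOPS pH 7.0, 1 mM EDTA. Reactions ran 90 min at 30 °C, were stopped with phosphoric acid and filter-counted; percent inhibition from ≥2 experiments gave semi-quantitative potency scores.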

SMILES | EC50 [1] [nM] | IC50 [2] [nM]
CCN(CC)CCNS(=O)(=O)c1ccc(Nc2ccc(-c3ccc4c(c3)CNC4=O)n3ccnc23)cc1 [Compound 22, N-(2-(diethylamino)ethyl)-4-(5-(1-oxoisoindolin-5-yl)imidazo[1,2-a]pyridin-8-ylamino)benzene sulfonamide] | 1000 to 3000 | 101 to 1000
CCN(CC)CCNC(=O)c1ccc(Nc2ccc(-c3ccc4c(c3)CNC4=O)n3ccnc23)cc1 [Compound 23, N-(2-(diethylamino)ethyl)-4-(5-(1-oxoisoindolin-5-yl)imidazo[1,2-a]pyridin-8-ylamino) benzamide] | > 3000 | < 100
CNS(=O)(=O)c1ccc(Nc2ccc(-c3ccc4c(c3)CNC4=O)n3ccnc23)cc1 [Compound 24, N-methyl-4-(5-(1-oxoisoindolin-5-yl)imidazo[1,2-a]pyridin-8-ylamino)benzene sulfonamide] | 1000 to 3000 | 101 to 1000
CN(C)c1ccc(CNS(=O)(=O)c2ccc(Nc3ccc(-c4ccc5c(c4)CNC5=O)n4ccnc34)cc2)cc1 [Compound 25, N-(4-(dimethylamino)benzyl)-4-(5-(1-oxoisoindolin-5-yl)imidazo[1,2-a]pyridin-8-ylamino)benzene sulfonamide] | 1000 to 3000 | 101 to 1000
CC(C)N1CCN(c2ccc(Nc3ccc(-c4ccc5c(c4)CNC5=O)n4ccnc34)cc2F)CC1 [Compound 26, 5-(8-(3-fluoro-4-(4-isopropyl-piperazin-1-yl)phenylamino)imidazo[1,2-a]pyridin-5-yl)isoindolin-1-one] | > 3000 | < 100
CC(C)N1CCN(c2ccc(Nc3ccc(-c4ccc5c(c4)CNC5=O)n4ccnc34)cc2C(F)(F)F)CC1 [Compound 27, 5-(8-(4-(4-isopropylpiperazin-1-yl)-3-(trifluoromethyl)phenylamino)imi-dazo[1,2-a]pyridin-5-yl)isoindolin-1-one] | > 3000 | 101 to 1000
CCN1CCN(c2ccc(Nc3ccc(-c4ccc5c(c4)CNC5=O)n4ccnc34)cc2Cl)CC1 [Compound 28, 5-(8-(3-chloro-4-(4-ethylpiperazin-1-yl)phenylamino)imidazo[1,2-a]pyridin-5-yl)isoindolin-1-one] | > 3000 | 101 to 1000
CC(C)N1CCN(c2ccc(Nc3ccc(-c4ccc5c(c4)CNC5=O)n4ccnc34)cc2Cl)CC1 [Compound 29, 5-(8-(3-chloro-4-(4-isopropyl-piperazin-1-yl)phenylamino)imidazo[1,2-a]pyridin-5-yl)isoindolin-1-one] | > 3000 | 101 to 1000
O=C1NCc2cc(-c3ccc(Nc4ccc(S(=O)(=O)NC5CCNC5)cc4)c4nccn34)ccc21 (stereo not shown) [Compound 32, 4-(5-(1-oxoisoindolin-5-yl)imidazo[1,2-a]pyridin-8-ylamino)-N-(pyrrolidin-3-yl)benzene sulfonamide] | > 3000 | 101 to 1000
CN(C)c1ccc(CNC(=O)c2ccc(Nc3ccc(-c4ccc5c(c4)CNC5=O)n4ccnc34)cc2)cc1 [Compound 33] | 101 to 1000 | 101 to 1000
O=C(NCCN1CCCC1)c1ccc(Nc2ccc(-c3ccc4c(c3)CNC4=O)n3ccnc23)cc1 [Compound 34, 4-(5-(1-oxoisoindolin-5-yl)imidazo[1,2-a]pyridin-8-ylamino)-N-(2-(pyrrolidin-1-yl)ethyl)benzamide] | > 3000 | < 100
CN(C)CCNC(=O)c1ccc(Nc2ccc(-c3ccc4c(c3)CNC4=O)n3ccnc23)cc1 [Compound 36, N-(2-(dimethylamino)ethyl)-4-(5-(1-oxoisoindolin-5-yl)imidazo[1,2-a]pyridin-8-ylamino)benzamide] | > 3000 | 101 to 1000
Cc1cc(CNC(=O)c2ccc(Nc3ccc(-c4ccc5c(c4)CNC5=O)n4ccnc34)cc2)no1 [Compound 37, N-((5-methylisoxazol-3-yl)methyl)-4-(5-(1-oxoisoindolin-5-yl)imidazo[1,2-a]pyridin-8-ylamino)benzamide] | 1000 to 3000 | 1000 to 3000
COCCN(C)C(=O)c1ccc(Nc2ccc(-c3ccc4c(c3)CNC4=O)n3ccnc23)cc1 [Compound 38, N-(2-methoxyethyl)-N-methyl-4-(5-(1-oxoisoindolin-5-yl)imidazo[1,2-a]pyridin-8-ylamino)benzamide] | > 3000 | 101 to 1000
CN(C)C1CCN(C(=O)c2ccc(Nc3ccc(-c4ccc5c(c4)CNC5=O)n4ccnc34)cc2)C1 (stereo not shown) [Compound 39, 5-(8-(4-(3-(dimethylamino)pyrrolidine-1-carbonyl)phenyl-amino)imidazo[1,2-a]pyridin-5-yl)isoindolin-1-one] | > 3000 | < 100
CCOCCN1CCN(C(=O)c2ccc(Nc3ccc(-c4ccc5c(c4)CNC5=O)n4ccnc34)cc2)CC1 [Compound 40, 5-(8-(4-(4-(2-ethoxyethyl)piper-azine-1-carbonyl)phenyl-amino)imidazo[1,2-a]pyridin-5-yl)isoindolin-1-one] | > 3000 | 101 to 1000
CNC(=O)C1CCN(C(=O)c2ccc(Nc3ccc(-c4ccc5c(c4)CNC5=O)n4ccnc34)cc2)CC1 [Compound 41, N-methyl-1-(4-(5-(1-oxoisoindolin-5-yl)imidazo[1,2-a]pyridin-8-ylamino)benzoyl) piperidine-4-carboxamide] | > 3000 | 101 to 1000
CC(=O)N(C)C1CCN(C(=O)c2ccc(Nc3ccc(-c4ccc5c(c4)CNC5=O)n4ccnc34)cc2)C1 (stereo not shown) [Compound 42, N-methyl-N-(1-(4-(5-(1-oxoisoindolin-5-yl)imidazo[1,2-a]pyridin-8-ylamino)benzoyl)pyrrolidin-3-yl)acetamide] | > 3000 | 101 to 1000
O=C(NCCN1CCOCC1)c1ccc(Nc2ccc(-c3ccc4c(c3)CNC4=O)n3ccnc23)cc1 [Compound 43, N-(2-morpholinoethyl)-4-(5-(1-oxoisoindolin-5-yl)imidazo[1,2-a]pyridin-8-ylamino)benzamide] | > 3000 | 101 to 1000
O=C1NCc2cc(-c3ccc(Nc4ccc(C(=O)N5CCC(N6CCCCC6)CC5)cc4)c4nccn34)ccc21 [Compound 46, 5-(8-(4-(1,4′-bipiperidine-1′-carbonyl)phenylamino)imidazo[1,2-a]pyridin-5-yl)isoindolin-1-one] | > 3000 | < 100

From patent US20120010206A1, “IMIDAZOLOPYRIDINE COMPOUNDS USEFUL FOR THE TREATMENT OF DEGENERATIVE AND INFLAMMATORY DISEASES” (priority 2006, published 2012)
